Measurements published in US4650785A, “Pharmaceutical composition having an excellent absorption property” (Ajinomoto Company Incoporated, priority 1982, dated 1987).

Key:
[1] = Usefulness as medicine absorption promoter (statement, test not described)
[2] = test system: Female CD-1(ICR) Mice; assay: Toxicity studies of phenylalanine derivatives (LD50); format: in vivo; settings: mouse, in vivo
Text: Toxicity Studies of Phenylalanine Derivatives with Oral IN Potentiating Activity in Female CD-1(ICR) Mice are as follows:
Phenylalanine derivatives were suspended in 0.5% CMC.

[3] = test system: Female ICR-CD-1 mice; assay: Oral administration of absorption promoter mixed with insulin to mice: decrease in blood glucose and elevation of blood insulin versus control; format: in vivo; design: Degree of Elevation of Blood Insulin: unit not given here; settings: oral, mice, vs control group
Experimental: The absorption promoter samples listed in Table 2 were dissolved or suspended in 0.5% CMC-0.05M tris-HCl buffers (pH: 7.8) and the solutions or suspensions were mixed with aqueous insulin solution. Female ICR-CD-1 mice 5 to 7 weeks old were orally administered predetermined amounts of the mixtures. A predetermined duration later, the percent decrease in blood glucose and the degree of elevation of blood insulin as compared with the control group were measured. The symbol "Z" in the structural formulas in the table represents a benzyloxycarbonyl group. The upper figures in the columns "effectiveness" represent the percent decrease in blood glucose and the lower parenthesized figures indicate the degree of elevation in blood insulin.

[4] = sample 1.5 mg/10 g with insulin 2.5 U/10 g body weight, 30 minutes
[5] = sample 1.5 mg/10 g with insulin 2.5 U/10 g body weight, 60 minutes
[6] = sample 6.0 mg/10 g with insulin 2.5 U/10 g body weight, 30 minutes
[7] = sample 6.0 mg/10 g with insulin 2.5 U/10 g body weight, 60 minutes

| SMILES | usefulness as the absorption promoter [1] | LD50 (mg/kg) [2] | Decrease in Blood Glucose (%) [3, 6] [%] | Degree of Elevation of Blood Insulin [3, 6] | Decrease in Blood Glucose (%) [3, 7] [%] | Degree of Elevation of Blood Insulin [3, 7] | also measured |
| --- | --- | --- | --- | --- | --- | --- | --- |
| CC(=O)N[C@@H](Cc1ccccc1)C(=O)O [N-acetylphenylalanine] | not useful as the absorption promoter |  |  |  |  |  |  |
| N[C@@H](Cc1ccccc1)C(=O)O [Phenylalanine] | not useful as the absorption promoter |  |  |  |  |  |  |
| O=C(COc1ccc(Cl)cc1)N[C@@H](Cc1ccccc1)C(=O)O [Sample S-13, N-[(4-chlorophenoxy)acetyl]-L-phenylalanine] |  | > 3,500 mg/kg |  |  |  |  | Decrease in Blood Glucose (%) [3, 4]: 31.9%; Degree of Elevation of Blood Insulin [3, 4]: 43.4; Decrease in Blood Glucose (%) [3, 5]: 18.5%; Degree of Elevation of Blood Insulin [3, 5]: 9.82 |
| O=C(COc1ccc2ccccc2c1)N[C@@H](Cc1ccccc1)C(=O)O [Sample S-12, N-[(2-naphthoxy)acetyl]-L-phenylalanine] |  | > 4,000 mg/kg | 50.8 | 6.05 | 66.8 | 5.62 |  |
| O=C(C=Cc1ccccc1)N[C@@H](Cc1ccccc1)C(=O)O [Sample S-3, N-cinnamoyl-L-phenylalanine] |  | > 2,500 mg/kg | 84.4 | 34.2 | 84.3 | 68.1 |  |
